# Test results: patent US20160022699A1, “COMBINATIONS AND METHODS FOR TREATING NON AGE-RELATED HEARING IMPAIRMENT IN A SUBJECT” (Washington University, priority 2012, published 2016)
# “Also recorded” adds a separate entry of the source.
# What was measured:
# [1] = tested on: noise-induced hearing loss (NIHL) in C57BL/6J mice; assay: NIHL treatment protocol: drug i.p. 24 hours after white noise (110 dB SPL, 30 min), ABR threshold shifts; settings: for ED50: Mus musculus, ip, 24 h, read-out: median effective dose (ED50) to treat noise-induced hearing loss; for drug effect on ABR threshold shift (two-way ANOVA), treatment / gender effect on ABR threshold shift (two-way ANOVA), treatment: 24 hours after noise
# [2] = tested on: noise-induced hearing loss (NIHL) in C57BL/6J mice; assay: NIHL prevention protocol: drug i.p. two hours before white noise (110 dB SPL, 30 min), ABR thresholds / threshold shifts two weeks after noise; settings: for ED50: Mus musculus, ip, 2 h, read-out: median effective dose (ED50) to prevent noise-induced hearing loss; for drug effect on ABR threshold shift (two-way ANOVA), prevention: all dosages
# NIHL in mice [3] = settings: cited from earlier work; for prophylactic and therapeutic effects against NIHL: drinking water, three weeks before noise
# NIHL in mice [4] = settings: intraperitoneal injections; cited from earlier work
# cultured auditory cells = settings: cited from earlier work
structure (smiles),measurement,setting,value
C[C@@H]1C[C@H]2[C@@H]3CCC4=CC(=O)C=C[C@]4(C)[C@@]3(F)[C@@H](O)C[C@]2(C)[C@@]1(O)C(=O)CO [dexamethasone],ED50,[1],96.3 mg/kg
same,ED50,[2],39.4 mg/kg
C[C@H]1C[C@@H]2[C@H]([C@@H](O)C[C@@]3(C)[C@H]2CC[C@]3(O)C(=O)CO)[C@@]2(C)C=CC(=O)C=C12 [methylprednisolone],ED50,[1],95.6 mg/kg
same,ED50,[2],525 mg/kg
NS(=O)(=O)Cc1noc2ccccc12 [zonisamide],"drug effect on ABR threshold shift (two-way ANOVA), treatment",[1],no statistically significant drug effects
same,"gender effect on ABR threshold shift (two-way ANOVA), treatment",[1],the gender had no effects as well
same,ED50,[1],2540 mg/kg
same,ED50,[2],125 mg/kg
same,dosage dependence of NIHL prevention,[2]; two hours before noise,clear dosage-dependent prevention of NIHL
same,"gender effect on ABR threshold shift (two-way ANOVA), prevention",[2]; two hours before noise,the gender had no effects; also recorded: showed no gender differences
same,"drug effect on ABR threshold shift (two-way ANOVA), prevention",[2]; two hours before noise,statistically significant drug effects
CCC1(C)CC(=O)NC1=O (stereo not drawn) [ethosuximide],prophylactic and therapeutic effects against NIHL,NIHL in mice [3],both prophylactic and therapeutic effects
same,"drug effect on ABR threshold shift (two-way ANOVA), treatment",[1],statistically significant drug effects
same,"gender effect on ABR threshold shift (two-way ANOVA), treatment",[1],the gender effect was also significant; also recorded: gender difference was also observed
same,ED50,[1],243 mg/kg
same,effect on NIHL (Tukey/Kramer post-hoc),"[2]; 60 mg/kg, two hours before noise",significantly enhanced NIHL
same,effect on NIHL (Tukey/Kramer post-hoc),"[2]; 90 mg/kg, two hours before noise",significantly protected against NIHL
same,effect on NIHL (Tukey/Kramer post-hoc),"[2]; 130 to 260 mg/kg, two hours before noise",reduced to no significance
same,median effective dose (ED50) to prevent noise-induced hearing loss,"[2]; i.p. two hours before noise, calculated with CompuSyn (Chou-Talalay)",no ED50; also recorded: could not be obtained
same,"gender effect on ABR threshold shift (two-way ANOVA), prevention",[2]; two hours before noise,showed no gender differences
same,"drug effect on ABR threshold shift (two-way ANOVA), prevention",[2]; two hours before noise,statistically significant main effect of drug concentrations
CN1C(=O)OC(C)(C)C1=O [trimethadione],prophylactic and therapeutic effects against NIHL,NIHL in mice [3],both prophylactic and therapeutic effects
same,gender dependence of therapeutic effect against NIHL,"NIHL in mice [3]; mouse, in vivo",observed only in male mice
same,outer hair cell (OHC) protection,"NIHL in mice [3]; mouse, in vivo",OHC protection was observed
COCC(=O)O[C@]1(CCN(C)CCCc2nc3ccccc3[nH]2)CCc2cc(F)ccc2[C@@H]1C(C)C [mibefradil],NIHL prophylactic function,NIHL in mice [4],no NIHL prophylactic functions
Fc1ccc(C(c2ccc(F)cc2)N2CCN(C/C=C/c3ccccc3)CC2)cc1 [flunarizine],NIHL prophylactic function,NIHL in mice [4],no NIHL prophylactic functions
same,cisplatin-induced cell death,cultured auditory cells,inhibit cisplatin-induced death of cultured auditory cells
